One assay has as its target T1, recombinant human HDC (Homo sapiens, UniProt P19113).
T1 construct: The DNA encoding for residues 1-512 of human HDC; GST (fusion partner of the pGEX-6P-1 vector) (N, cleaved yes); made in house; host or cells: Escherichia coli BL21(DE3)pLysS
T1 sequence (P19113 1-512): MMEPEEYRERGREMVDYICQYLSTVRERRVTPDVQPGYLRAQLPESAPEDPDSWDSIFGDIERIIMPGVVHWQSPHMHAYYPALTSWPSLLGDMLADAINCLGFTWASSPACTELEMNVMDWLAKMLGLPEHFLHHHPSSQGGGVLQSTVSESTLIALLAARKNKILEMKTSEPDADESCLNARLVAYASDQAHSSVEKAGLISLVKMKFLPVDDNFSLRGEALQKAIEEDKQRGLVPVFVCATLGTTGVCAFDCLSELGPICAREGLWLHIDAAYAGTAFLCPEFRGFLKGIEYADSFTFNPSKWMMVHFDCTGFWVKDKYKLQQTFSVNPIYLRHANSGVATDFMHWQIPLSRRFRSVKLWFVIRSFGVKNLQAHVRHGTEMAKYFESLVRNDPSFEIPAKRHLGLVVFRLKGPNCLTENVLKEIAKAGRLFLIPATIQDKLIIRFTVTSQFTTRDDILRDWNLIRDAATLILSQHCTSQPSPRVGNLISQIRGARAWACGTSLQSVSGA
Nature of the assay: Human-HDC activity determination (14CO2 from L-[U-14C]histidine). The class given is biochemical. The following applies: 10 μM final. From the text: The DNA encoding for residues 1-512 of human HDC was subcloned in the pGEX-6P-1 vector (GE-Healthcare). The recombinant plasmid transformed into the Escherichia coli BL21(DE3)pLysS strain. Transformed cultures were induced to express the HDC 1/512, which was purified by affinity chromatography using Glutathione sepharose (GE-Healthcare). 1/512 HDC was released from the fusion protein bound to the affinity chromatography support by digestion with the Pre-Scission™ protease (GE-Healthcare). The final preparations were dissolved in 50 mM potassium phosphate, 0.1 mM PLP, pH 7.0. Purity of the HDC 1/512 construct was checked by Coomassie blue staining and Western blotting, and was higher than 95% in the final preparations.
HDC activity was assayed, as described in Engel at al. (1996) Biochem J. 320: 365-368, by measuring the production of ^14CO2 from L-[U-^14C]histidine (GE-Healthcare) in a mixture containing 0.2 mM dithiothreitol, 10 μM PLP, 10 mg/ml poly(ethylene glycol)-300, 100 mM potassium phosphate, pH 6.8, and purified protein in a total volume of 100 μL. When recombinant HDC was used, the concentration of L[U-^14C]histidine was 13.3 μM (with ⅓ isotopic dilution). The released ^14CO2 was measured as previously described for HDC activity determinations (Urdiales et al. (1992) FEBS Lett. 305, 260-264).
10 μM concentration of each isomer, A and B (A corresponds to the isolated pure isomer eluting at 5.9 minutes, B corresponds to the isolated pure isomer eluting at 7.1 minutes of the chromatogram shown in FIG. 4 (bottom)) and their corresponding racemic mixture (starting material prior to separating the individual isomers, indicated as A+B) along with 4 μg of recombinant human HDC were used to asses the inhibitory effect of each isomer and the mixture on the enzymatic conversion of histidine to histamine. Results are presented as means of duplicates samples.

Assay [1] is described as follows: Reintroduction of causal food allergen in food allergy patients. The class given is in vivo, human. The following applies: baseline patients treated with one drug alone. From the text: Allergens tested came from either […], or ALLERBIO.
The direct test with the Nutella® was strongly positive for allergy. This patient was hospitalized in two occasions for the same dramatic allergic reaction to Nutella® spread. Furthermore, the patient presented allergies to pneumoallergens.
Continuation of the above treatment for over 8 months afforded reversal of allergic and digestive symptoms due to food allergy.
The patient under study had survived two cases of anaphylactic shock due to ingestion of shrimps. […] Later the patient was able to ingest five shrimps without any local signs and no global reaction.
Baseline patients had signs of food allergies and the food allergy symptoms were not adequately managed with an H1 antagonist and cromoglycate. A group of 15 patients presenting signs of food allergies is tested with allergens such as the following: peanut, milk, tomato, potato, flour of wheat, soybean, fish, and shrimp. Allergens tested came from either […], or ALLERBIO.
All patients had history of hospitalization and reactions such as Quincke's edema and asthma crisis. Most of the causal allergens were peanut (six patients), egg (four patients) and soybean (five patients) of them (with other several positive food allergens at different degrees of reaction). […]

Assay [2] is described as follows: Spirometry parameter FEV1 in COPD patients. The class given is in vivo, human. Details: T0 (initial visit) FEV1: unit not given here. The protocol: At the initial visit to the physician (T0), the patients were examined and the spirometry parameter FEV1 was recorded. Tritoqualine 200 mg/day were added to the patient's existing drug therapy. […] During each visit the patient's overall health and the FEV1 parameter was assessed by spirometry. […]

For assay [3], the system named is hematopoietic progenitor cells. Nature of the assay: CFU of hematopoietic progenitor cells in the presence of Ara-C. The class given is cell-based. The following applies: listed as TRQ. The text has this: Ara-C is a chemotherapeutic agent that kills cancel cells (or actively dividing cells).

SMILES strings stand for the structures. “And” between values parts separate entries of the source, which are not always exact repeats. Equal entries are not always repeated. “Also recorded” adds a separate entry of the source.

For `CCOc1c(N)c2c(c(OCC)c1OCC)C(C1c3c(cc4c(c3OC)OCO4)CCN1C)OC2=O` (racemic) [Tritoqualine, 7-Amino-4,5,6-triethoxy-3-(5,6,7,8-tetrahydro-4-methoxy-6-methyl-1,3-dioxolo[4,5-g]isoquinolin-5-yl) phthalide], the inhibition (in general, the percentage by which the read-out fell short of the control) at 10 µM at recombinant human HDC turned out to be 17.5%. Further, at recombinant human HDC (4 μg recombinant human HDC, means of duplicates, control 12340), the DPM is listed as 10176 DPM. In addition, the Activity at recombinant human HDC (control 0.35) was determined as 0.29 µmol/h. For the same molecule, the Specific activity at recombinant human HDC (control 87.00) came to 71.74 μmole/h · mg prot. On recombinant human HDC (read-out: % of control), the remaining activity at 10 µM turned out to be 82.5%. The “management of food allergy symptoms with the single drug” value in assay [1] was “did not yield satisfactory management”. Further, in assay [2] (Example 12, 13 COPD patients, one line per patient, baseline before Tritoqualine), the “T0 (initial visit) FEV1” value is 1.00 (2×) and 2.39 and 1.86 (2×) and 1.60 and 1.53 and 1.64 and 1.32 and 0.82 and 0.58 and 2.28 and 1.30. In assay [2] (Example 12, 13 patients, P=0.0012), the “improvement of FEV1 from visit T0 to T1 (paired t-test)” value is “statistically significant improvement”. Besides, in assay [2] (Example 12, N 13, 6-8 weeks of Tritoqualine 200 mg/day, FEV1 relative to expected normal value), the “Mean, Visit T1” value is 77.69. Also, the “Mean, Visit T0” value in assay [2] (Example 12, N 13, baseline, FEV1 relative to expected normal value) was determined as 65.3. Moreover, the “FEV1 as percent of expected normal value” in assay [2] (Example 12, per patient, 6-8 weeks of Tritoqualine 200 mg/day) was 50.76% and 97.74% and 85.50% and 71.77% and 92.96% and 72.24% and 87.41% and 64.90% and 68.42% and 43.53% and 88.24% and 88.89% and 105.12%; in assay [2] (Example 12, per patient, baseline), 50.76% and 89.85% and 47.33% and 76.56% and 71.83% and 62.36% and 74.07% and 53.88% and 53.95% and 34.12% and 83.82% and 72.22% and 86.51%. Also, the “T2 (6-8 weeks follow-up visit) FEV1 normalized” value in assay [2] (Example 12, per patient, Tritoqualine 200 mg/day added to existing therapy) is 1.00 and 2.60 and 3.36 and 1.50 and 1.98 and 1.90 and 1.18 and 1.59 and 1.04 and 0.74 and 2.40 and 1.60 and 2.26. Moreover, the “protection of cells / cell CFU in the presence of Ara-C” value in assay [3] was “provides protection to the cells; also recorded: cell CFU remains high”.
